Our source for the Activity values is ChEMBL document CHEMBL4400545 (Bioorg Med Chem, 2019).

The experiment addresses Sodium- and chloride-dependent GABA transporter 1 (Mus musculus) (UniProt P31648). Kind of experiment: Inhibition of mouse GAT-1 assessed as percentage of remaining specific binding of NO711 at 1 uM after 4 hrs by LC-ESI-MS/ms analysis relative to control.

The structures appear in SMILES notation.

Regarding `CC(C=O)(CCC#N)c1ccccc1` (configuration not stated), the Activity is 92%.
Under `COc1ccc(C=O)cc1` stands 89%; under `COc1ccccc1C=O`, 89%.
Under `Cc1ccccc1-c1ncccc1C=O` stands 87%; under `Cc1ccsc1-c1sc(C=O)cc1C`, 97%; under `Cc1noc(-c2ccccc2C=O)n1`, 97%.
The result for `Cc1onc(-c2ccc(Cl)cc2)c1C=O` reads 92%; that for `O=CC(c1ccccc1)c1ccccc1`, 90%.
Regarding `O=CC1CC2C=CC1C2` (configuration not stated), the Activity amounted to 85%.
For the compound `O=Cc1c2ccccc2cc2ccccc12`, the Activity is 87%.
For the compound `O=Cc1c[nH]c2ncccc12`, the Activity was 85%.
`O=Cc1c[nH]nc1-c1ccc(F)cc1`: the Activity worked out at 92%.
`O=Cc1cc(F)ccc1-c1ccc(Cl)cc1Cl`: the Activity worked out at 82%.
The result for `O=Cc1cc(F)ccc1-c1ccccc1` reads 80%.
The result for `O=Cc1cc(F)ccc1-c1ccccc1Cl` reads 80%.
Regarding `O=Cc1cc(F)ccc1-c1ccccc1F`, the Activity amounted to 80%.
Turning to `O=Cc1cc2c(cc1-c1ccc(Cl)cc1Cl)OCO2`, the Activity worked out at 92%.
Under `O=Cc1cc2c(cc1-c1ccccc1)OCO2` stands 92%; under `O=Cc1cc2c(cc1-c1ccccc1Cl)OCO2`, 92%; under `O=Cc1cc2c(cc1-c1ccccc1F)OCO2`, 92%.
On to `O=Cc1ccc(-c2ccc(C(F)(F)F)cc2Cl)o1`, for which the Activity was determined as 82%.
As to `O=Cc1ccc(-c2ccccc2)cc1`, the Activity amounted to 90%.
In the case of `O=Cc1ccc(-c2ccccc2OC(F)(F)F)o1`, the Activity was 82%.
On to `O=Cc1ccc(Br)cn1`, for which the Activity was determined as 92%.
The result for `O=Cc1ccc(Br)nc1` reads 92%; that for `O=Cc1ccc(C#Cc2ccccc2)s1`, 94%; that for `O=Cc1ccc(O)cc1`, 89%.
As for `O=Cc1ccc(OCc2ccccc2)cc1`, the Activity turned out to be 90%.
The result for `O=Cc1ccc(Oc2ccccc2)cc1` reads 90%; that for `O=Cc1ccc([N+](=O)[O-])cc1`, 92%.
The result for `O=Cc1ccc2c(c1)Cc1ccccc1-2` reads 88%; that for `O=Cc1ccc2ccccc2n1`, 87%.
Under `O=Cc1cccc(Br)n1` stands 92%; under `O=Cc1cccc(Oc2ccccc2)c1`, 90%.
`O=Cc1cccc([N+](=O)[O-])c1`: the Activity stood at 92%.
The result for `O=Cc1cccc2c1OCO2` reads 80%.
Under `O=Cc1ccccc1` stands 89%; under `O=Cc1ccccc1-c1c(F)cccc1F`, 88%.
For the compound `O=Cc1ccccc1-c1cc(F)ccc1F`, the Activity stood at 88%.
In the case of `O=Cc1ccccc1-c1ccc(Cl)cc1`, the Activity was 92%.
On to `O=Cc1ccccc1-c1ccc(Cl)cc1Cl`, for which the Activity was 93%.
`O=Cc1ccccc1-c1ccc(F)cc1`: the Activity stood at 92%.
The result for `O=Cc1ccccc1-c1ccc(F)cc1Cl` reads 93%.
As to `O=Cc1ccccc1-c1ccc2ccccc2c1`, the Activity was 86%.
Under `O=Cc1ccccc1-c1cccc(Cl)c1` stands 92%.
The result for `O=Cc1ccccc1-c1cccc(F)c1` reads 92%; that for `O=Cc1ccccc1-c1cccc(F)c1F`, 88%.
In the case of `O=Cc1ccccc1-c1cccc2ccccc12`, the Activity came out at 85%.
The result for `O=Cc1ccccc1-c1ccccc1` reads 90%.
For `O=Cc1ccccc1-c1ccccc1Cl`, the Activity came out at 93%.
The result for `O=Cc1ccccc1-c1ccccc1F` reads 93%; that for `O=Cc1ccccc1-c1cccnc1`, 88%; that for `O=Cc1ccccc1-c1ccco1`, 80%.
Under `O=Cc1ccccc1-c1cccs1` stands 92%; under `O=Cc1ccccc1-n1cccc1`, 97%; under `O=Cc1ccccc1-n1cccn1`, 88%.
Turning to `O=Cc1ccccc1OCc1ccccc1`, the Activity was 90%.
Under `O=Cc1ccccc1Oc1ccccc1` stands 88%; under `O=Cc1ccccc1[N+](=O)[O-]`, 92%; under `O=Cc1ccccn1`, 85%.
Under `O=Cc1cccn1-c1ccc(C(F)(F)F)cc1` stands 82%; under `O=Cc1cccnc1`, 94%.
The result for `O=Cc1cccnc1-c1ccc(Cl)cc1` reads 87%; that for `O=Cc1cccnc1-c1ccc(Cl)cc1Cl`, 86%; that for `O=Cc1cccnc1-c1cccc(Cl)c1`, 80%.
For `O=Cc1cccnc1-c1cccc(F)c1`, the Activity is 87%.
The result for `O=Cc1cccnc1-c1ccccc1` reads 87%; that for `O=Cc1cccnc1-c1ccccc1Cl`, 97%.
Under `O=Cc1cccnc1-c1ccccc1F` stands 80%; under `O=Cc1cccnc1Br`, 92%; under `O=Cc1ccnc2ccccc12`, 87%.
The result for `O=Cc1csc2ccccc12` reads 94%; that for `O=Cc1sccc1-c1ccc(Cl)cc1Cl`, 86%.
In the case of `O=Cc1sccc1-c1ccc(F)cc1Cl`, the Activity turned out to be 86%.
The result for `O=Cc1sccc1-c1ccccc1` reads 94%; that for `O=Cc1sccc1-n1cccc1`, 92%.
Consider `COc1ccc(/C=N/OCCN2CCCC(C(=O)O)C2)c2ccccc12` (racemic), for which the Activity turned out to be 61%.
Under `COc1ccc(/C=N/OCCN2CCCC(C(=O)O)C2)cc1` (racemic) stands 74%; under `COc1ccccc1/C=N/OCCN1CCCC(C(=O)O)C1` (racemic), 74%; under `Cc1ccc(/C=N/OCCN2CCCC(C(=O)O)C2)c2ccccc12` (racemic), 60%.
Under `Cc1ccsc1-c1sc(/C=N/OCCN2CCCC(C(=O)O)C2)cc1C` (racemic) stands 33%; under `Cc1noc(-c2ccccc2/C=N/OCCN2CCCC(C(=O)O)C2)n1` (racemic), 33%; under `O=C(O)C1CCCN(CCO/N=C/C2CC3C=CC2C3)C1` (racemic), 45%.
The result for `O=C(O)C1CCCN(CCO/N=C/COCc2ccccc2)C1` (racemic) reads 60%.
For `O=C(O)C1CCCN(CCO/N=C/c2c3ccccc3cc3ccccc23)C1` (racemic), the Activity is 62%.
Regarding `O=C(O)C1CCCN(CCO/N=C/c2c[nH]c3ncccc23)C1` (racemic), the Activity was 45%.
The result for `O=C(O)C1CCCN(CCO/N=C/c2cc3ccccc3c3ccccc23)C1` (racemic) reads 62%; that for `O=C(O)C1CCCN(CCO/N=C/c2ccc(Br)cn2)C1` (racemic), 71%.
Under `O=C(O)C1CCCN(CCO/N=C/c2ccc(Br)nc2)C1` (racemic) stands 71%; under `O=C(O)C1CCCN(CCO/N=C/c2ccc(C#Cc3ccccc3)s2)C1` (racemic), 48%; under `O=C(O)C1CCCN(CCO/N=C/c2ccc(F)c3ccccc23)C1` (racemic), 60%.
As for `O=C(O)C1CCCN(CCO/N=C/c2ccc(O)c3ccccc23)C1` (racemic), the Activity is 61%.
With `O=C(O)C1CCCN(CCO/N=C/c2ccc(O)cc2)C1` (racemic), the Activity stood at 74%.
As for `O=C(O)C1CCCN(CCO/N=C/c2ccc(OCc3ccccc3)cc2)C1` (racemic), the Activity was determined as 29%.
The result for `O=C(O)C1CCCN(CCO/N=C/c2ccc(Oc3ccccc3)cc2)C1` (racemic) reads 29%.
Under `O=C(O)C1CCCN(CCO/N=C/c2ccc([N+](=O)[O-])cc2)C1` (racemic) stands 60%.
Under `O=C(O)C1CCCN(CCO/N=C/c2ccc3ccccc3c2)C1` (racemic) stands 61%.
Consider `O=C(O)C1CCCN(CCO/N=C/c2ccc3ccccc3n2)C1` (racemic), for which the Activity was found to be 62%.
The result for `O=C(O)C1CCCN(CCO/N=C/c2cccc(Br)n2)C1` (racemic) reads 71%; that for `O=C(O)C1CCCN(CCO/N=C/c2cccc(Oc3ccccc3)c2)C1` (racemic), 29%; that for `O=C(O)C1CCCN(CCO/N=C/c2cccc([N+](=O)[O-])c2)C1` (racemic), 60%.
For `O=C(O)C1CCCN(CCO/N=C/c2cccc3ccccc23)C1` (racemic), the Activity is 61%.
The result for `O=C(O)C1CCCN(CCO/N=C/c2ccccc2)C1` (racemic) reads 74%; that for `O=C(O)C1CCCN(CCO/N=C/c2ccccc2-c2cccc3ccccc23)C1` (racemic), 45%; that for `O=C(O)C1CCCN(CCO/N=C/c2ccccc2-n2cccc2)C1` (racemic), 33%.
For the compound `O=C(O)C1CCCN(CCO/N=C/c2ccccc2OCc2ccccc2)C1` (racemic), the Activity was 29%.
The result for `O=C(O)C1CCCN(CCO/N=C/c2ccccc2[N+](=O)[O-])C1` (racemic) reads 60%.
The result for `O=C(O)C1CCCN(CCO/N=C/c2ccccn2)C1` (racemic) reads 45%; that for `O=C(O)C1CCCN(CCO/N=C/c2cccnc2)C1` (racemic), 48%; that for `O=C(O)C1CCCN(CCO/N=C/c2cccnc2-c2ccccc2)C1` (racemic), 22%.
The result for `O=C(O)C1CCCN(CCO/N=C/c2cccnc2-c2ccccc2Cl)C1` (racemic) reads 33%.
In the case of `O=C(O)C1CCCN(CCO/N=C/c2cccnc2Br)C1` (racemic), the Activity was determined as 71%.
The result for `O=C(O)C1CCCN(CCO/N=C/c2ccnc3ccccc23)C1` (racemic) reads 62%; that for `O=C(O)C1CCCN(CCO/N=C/c2ccncc2)C1` (racemic), 60%; that for `O=C(O)C1CCCN(CCO/N=C/c2csc3ccccc23)C1` (racemic), 48%.
Under `O=C(O)C1CCCN(CCO/N=C/c2sccc2-c2ccccc2)C1` (racemic) stands 48%; under `O=C(O)C1CCCN(CCO/N=C/c2sccc2-n2cccc2)C1` (racemic), 60%.
